From ChEMBL document CHEMBL1201862, “PubChem BioAssay data set” (2004)
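Protocol summary: plate cells (96-well), add compound at 5 concentrations, incubate 48 h, interpolate endpoints linearly. At the GI50, growth is halved.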 Active and inactive are the calls of the source. Cut-off read from the data, not from the text of the source: active = GI50 up to about 1.1 µM and inactive = higher.

Assays:
Assay in all cases: NCI tumour cell line growth inhibition, 48 h
CAKI-1 = system: CAKI-1
CCRF-CEM = system: CCRF-CEM
HCT-116 = system: HCT-116
K562 = system: K562
LOX IMVI = system: LOX IMVI
MDA-MB-435 = system: MDA-MB-435
MDA-N = system: MDA-N
OVCAR-3 = system: OVCAR-3
OVCAR-4 = system: OVCAR-4
PC-3 = system: PC-3
RXF 393 = system: RXF 393
SK-MEL-5 = system: SK-MEL-5
SR = system: SR
TK-10 = system: TK-10
UACC-62 = system: UACC-62
UO-31 = system: UO-31
HCC 2998 = system: HCC 2998
HL-60 = system: HL-60
SF-539 = system: SF-539

Measured: GI50

Oc1c(/N=N\c2ccccc2)c2cccc3ccc4cccc1c4c32
inactive: CAKI-1 > 100 µM | CCRF-CEM > 100 µM | HCT-116 > 100 µM | K562 > 100 µM | LOX IMVI > 100 µM | MDA-MB-435 > 100 µM | MDA-N > 100 µM | OVCAR-3 > 100 µM | OVCAR-4 43.2 µM | PC-3 > 100 µM | RXF 393 > 100 µM | SK-MEL-5 > 100 µM | SR 20.9 µM | TK-10 > 100 µM | UACC-62 > 100 µM | UO-31 > 100 µM

O=C(/C=C/c1ccsc1)c1ccc(Cl)s1
inactive: CAKI-1 > 100 µM | CCRF-CEM 28.4 µM | HCC 2998 31.7 µM | HCT-116 25.4 µM | HL-60 24.8 µM | K562 > 10 µM | LOX IMVI 19.4 µM | MDA-MB-435 30.6 µM | MDA-N 56.6 µM | OVCAR-4 > 100 µM | PC-3 > 100 µM | SF-539 > 100 µM | SK-MEL-5 > 100 µM | SR 24 µM | TK-10 > 100 µM | UACC-62 > 100 µM | UO-31 78.9 µM

CC(=O)NCC1OC2COC(c3ccccc3)OC2C(NC(=O)c2ccccc2)C1OC(=O)c1ccccc1 (configuration not stated)
inactive: CAKI-1 > 100 µM | CCRF-CEM > 100 µM | HCC 2998 > 100 µM | HCT-116 > 100 µM | HL-60 85.5 µM | K562 > 100 µM | LOX IMVI > 100 µM | MDA-MB-435 > 100 µM | MDA-N > 100 µM | OVCAR-3 > 100 µM | OVCAR-4 > 100 µM | PC-3 33.3 µM | RXF 393 35 µM | SF-539 > 100 µM | SK-MEL-5 > 100 µM | TK-10 > 100 µM | UACC-62 > 100 µM | UO-31 > 100 µM

COc1ccc(-n2cnc3c(NC(CCSC)C(=O)O)ncnc32)cc1 (configuration not stated)
inactive: CAKI-1 > 100 µM | CCRF-CEM > 100 µM | HCC 2998 > 100 µM | HCT-116 > 100 µM | K562 > 100 µM | LOX IMVI > 100 µM | MDA-MB-435 > 100 µM | MDA-N > 100 µM | OVCAR-3 > 100 µM | OVCAR-4 > 100 µM | PC-3 > 100 µM | SK-MEL-5 > 100 µM | SR > 100 µM | TK-10 > 100 µM | UACC-62 > 100 µM | UO-31 > 100 µM

O=C1c2ccccc2NC(=S)[C@@H]2CCCN12
inactive: CAKI-1 > 100 µM | CCRF-CEM > 100 µM | HCC 2998 > 100 µM | HCT-116 > 100 µM | K562 > 100 µM | LOX IMVI > 100 µM | MDA-MB-435 > 100 µM | MDA-N > 100 µM | OVCAR-3 > 100 µM | OVCAR-4 > 100 µM | PC-3 > 100 µM | RXF 393 > 100 µM | SF-539 > 100 µM | SK-MEL-5 > 100 µM | SR > 100 µM | TK-10 > 100 µM | UACC-62 > 100 µM | UO-31 > 100 µM

COc1cc(C)c(/C=C/C(=O)N2C(=O)OC[C@@H]2c2ccccc2)c(C)c1
inactive: CAKI-1 > 100 µM | CCRF-CEM 61.8 µM | HCC 2998 73.1 µM | HCT-116 89.3 µM | HL-60 98.4 µM | K562 78.9 µM | LOX IMVI > 100 µM | MDA-MB-435 > 100 µM | MDA-N > 100 µM | OVCAR-3 > 100 µM | OVCAR-4 81.3 µM | PC-3 50.4 µM | RXF 393 9.02 µM | SF-539 > 100 µM | SK-MEL-5 60.8 µM | TK-10 > 100 µM | UO-31 > 100 µM
